Measured values: article PMC4198181, “Gold(I) Complexes of 9-Deazahypoxanthine as Selective Antitumor and Anti-Inflammatory Agents” (PLoS ONE, 2014)

Key:
[1] = test system: TNF-α secretion in LPS-stimulated macrophage-like THP-1 cells; assay: LPS-induced TNF-α secretion in THP-1 macrophages (ELISA); format: cell-based, human; conditions: 300 nM, 1 h pretreatment, 24 h after LPS
Experimental: (§1) For the determination of biological activity, we used the human monocytic leukaemia cell line THP-1 (ECACC, Salisbury, UK). The cells were cultivated at 37°C in the RPMI 1640 medium supplemented with 2 mM L-glutamine, 10% FBS, 100 U/mL of penicillin and 100 µg/mL of streptomycin in a humidified atmosphere containing 5% CO2. Stabilized cells (3rd–15th passage) were split into microtitration plates to get a concentration of 500 000 cells/mL and the differentiation to macrophages was induced by phorbol myristate acetate (PMA) dissolved in dimethyl sulfoxide (DMSO) at the final concentration of 50 ng/ml, and the cells were incubated for 24 h. In comparison with monocytes, differentiated macrophages tend to adhere to the bottoms of the cultivation plates. For next 24 h the cells were incubated with a fresh complete RPMI medium, i.e. containing antibiotics and FBS, without PMA. The medium was then aspirated, and the cells were washed with PBS and cultivated for next 24 hours in serum-free RPMI 1640 medium. These prepared macrophages were used for the detection of inflammatory response.
(§2) Differentiated macrophages were pretreated with 300 nM solutions of the tested complexes, HLn, AuCl, [AuCl(PPh3)], PPh3 and Auranofin dissolved in DMSO (the final DMSO concentration was 0.1%) and with 0.1% DMSO solution itself (vehicle) for 1 h; the given concentrations of the tested compounds lack the cytotoxic effect (cell viability >94%) based on the results of WST-1 test. The inflammatory response in pretreated macrophages was triggered by the addition of 1.0 µg/mL lipopolysaccharide (LPS) dissolved in water, while the control cells (CTRL) remained without the LPS treatment.
(§3) Macrophages, which were pretreated with the tested compounds (complexes 1–5, HLn, AuCl, [AuCl(PPh3)], PPh3 and Auranofin) for 1 h, were incubated with LPS for next 24 h. After this period, the medium was collected and the concentration of TNF-α, and IL-1β was determined by the Instant ELISA Kit according to the manufactures' manual.
(§4) The statistically significant differences between individual groups during anti- inflammatory testing were evaluated using a one-way ANOVA test for statistical analysis, followed by Tukey's post-hoc test for multiple comparisons. GraphPad Prism 5.02 (GraphPad Software Inc., San Diego, CA, USA) was used to perform the analysis. The results are presented as arithmetic means±S.E. values.

[2] = test system: IL-1β secretion in LPS-stimulated macrophage-like THP-1 cells; assay: LPS-induced IL-1β secretion in THP-1 macrophages (ELISA); format: cell-based, human; conditions: 300 nM, 1 h pretreatment, 24 h after LPS
Experimental: as §1, §2, §3, §4

[3] = test system: THP-1 monocytic leukaemia cells; assay: WST-1 in vitro cytotoxicity, THP-1; format: cell-based, human; conditions: 24 h treatment, WST-1, 0.16–10.00 µM; read-out: IC50±S.E., THP-1
Experimental: Before the in vitro anti-inflammatory testing, in vitro cytotoxicity on human monocytic leukaemia cells (THP-1, ECACC no. 88081201) was determined using the WST-1 assay. The THP-1 cells (floating monocytes, 500 000 cells/mL) were incubated in 100 µL of the serum-free RPMI 1640 medium and seeded into 96-well plates in triplicate at 37°C. Measurements were taken 24 h after the treatment with the tested compounds dissolved in 0.1% DMSO in the concentration range of 0.16–10.00 µM. Viability was determined by the WST-1 test according to the manufacturer's manual. The amount of the formed formazan (which correlates to the number of metabolically active cells in the culture) was calculated as a percentage of the control cells, which were treated only with 0.1% DMSO and was set-up as 100%. The IC50 values of the tested compounds were calculated from the obtained data. The WST-1 assay was performed spectrophotometrically at 440 nm (FLUOstar Omega, BMG Labtech).
The cytotoxicity data were expressed as the percentage of viability, where 100% represented the treatments with vehicle (0.1% DMF or 0.1% DMSO). The cytotoxicity data from the cancer cell lines were acquired from three independent experiments (conducted in triplicate) using cells from different passages. The IC50 values were calculated from viability curves. The results are presented as arithmetic means±standard error of the mean (S.E.). The significance of the differences between the results was assessed by the ANOVA analysis with p<0.05 considered to be significant (QC Expert 3.2, Statistical software, TriloByte Ltd., Pardubice, Czech Republic).

HOS osteosarcoma cells = assay: MTT in vitro cytotoxicity, HOS; format: cell-based, human; conditions: 24 h treatment, read-out: IC50±S.E., HOS
Experimental: (§5) In vitro cytotoxic activity was determined by the MTT assay in human breast adenocarcinoma (MCF7; ECACC no. 86012803), human osteosarcoma (HOS; ECACC no. 87070202), lung carcinoma (A549; ECACC no. 86012804), malignant melanoma (G361; ECACC no. 88030401), cervix epitheloid carcinoma (HeLa; ECACC no. 93021013), ovarian carcinoma (A2780; ECACC no. 93112519), cisplatin-resistant ovarian carcinoma (A2780R; […] ECACC no 105092802) cancer cell lines, purchased from European Collection of Cell Cultures (ECACC). […] The primary culture of human hepatocytes (HEP220, batch number HEP220819) was obtained from Biopredic International (France). The culture medium was Williams and HAM's F-12 (1∶1) supplemented with penicillin, streptomycin, ascorbic acid, linoleic acid, holo-transferin, ethanolamine, glucagon, insulin, dexamethasone, pyruvate, glucose, glutamine, amphotericin. The medium was enriched for plating with 2% foetal calf serum (v/v). The medium was exchanged for a serum-free medium the day after and the culture was stabilized for additional 24 h. Thereafter, the cells were ready for treatments. […] The MTT assay was performed spectrophotometrically at 540 nm (TECAN, Schoeller Instruments LLC). The cytotoxicity data were expressed as the percentage of viability, where 100% represented the treatments with vehicle (0.1% DMF or 0.1% DMSO). The cytotoxicity data from the cancer cell lines were acquired from three independent experiments (conducted in triplicate) using cells from different passages. The IC50 values were calculated from viability curves. The results are presented as arithmetic means±standard error of the mean (S.E.).

[4] = test system: A2780R ovarian carcinoma cells resistant to cisplatin; assay: MTT in vitro cytotoxicity, A2780R; format: cell-based, human; conditions: for IC50: 24 h treatment, MTT, read-out: IC50±S.E., A2780R
Experimental: as §5

[5] = test system: primary culture of human hepatocytes (HEP220); assay: MTT in vitro cytotoxicity, primary human hepatocytes; format: cell-based; conditions: 24 h treatment, MTT; read-out: IC50±S.E., HEP220 (healthy human hepatocytes)
Experimental: as §5

[6] = test system: A2780 ovarian carcinoma cells; assay: MTT in vitro cytotoxicity, A2780; format: cell-based, human; conditions: 24 h treatment, read-out: IC50±S.E., A2780
Experimental: as §5

[7] = test system: HeLa cervix epitheloid carcinoma cells; assay: MTT in vitro cytotoxicity, HeLa; format: cell-based, human; conditions: 24 h treatment, read-out: IC50±S.E., HeLa
Experimental: as §5

[8] = test system: MCF7 breast carcinoma cells; assay: MTT in vitro cytotoxicity, MCF7; format: cell-based, human; conditions: 24 h treatment, read-out: IC50±S.E., MCF7
Experimental: as §5

[9] = test system: G361 malignant melanoma cells; assay: MTT in vitro cytotoxicity, G361; format: cell-based, human; conditions: 24 h treatment, read-out: IC50±S.E., G361
Experimental: as §5

[10] = test system: 22Rv1 prostate carcinoma cells; assay: MTT in vitro cytotoxicity, 22Rv1; format: cell-based, human; conditions: 24 h treatment, read-out: IC50±S.E., 22Rv1
Experimental: as §5

[11] = test system: A549 lung carcinoma cells; assay: MTT in vitro cytotoxicity, A549; format: cell-based, human; conditions: 24 h treatment, read-out: IC50±S.E., A549
Experimental: as §5

[12] = test system: λ-carrageenan-induced hind paw edema; assay: Carrageenan-induced hind paw edema; format: in vivo, Wistar-SPF rats; conditions: i.p., dose equivalent in gold to 10 mg/kg Auranofin
Experimental: Wistar-SPF (6–8 weeks male) rats were obtained from AnLab, Ltd. (Prague, Czech Republic). The animals were kept in plexiglass cages at the constant temperature of 22±1°C and relative humidity of 55±5% for at least 1 week before the experiment. They were given food and water ad libitum. All the experimental procedures were performed according to the National Institutes of Health (NIH) Guide for the Care and Use of Laboratory Animals. In addition, all the tests were conducted under the guidelines of the International Association for the Study of Pain [61]. After a one-week adaptation period, male Wistar-SPF rats (200–250 g) were randomly assigned to five groups (n = 7) of the animals in the study. The first, control group, received 25% DMSO (v/v in water, intraperitoneal; i.p.). The next three groups were pretreated with complexes 2, 4 and 5, and involved into the carrageenan-treatment. The fifth group was treated with a non-steroidal anti-inflammatory drug Indomethacin (5 mg/kg), which served as a positive control group (Indomethacin + carrageenan).
The carrageenan-induced hind paw edema model was used for the determination of anti-inflammatory activity. Animals were i.p. pretreated with complexes 2, 4, and 5 (the dosages of the individual complexes were adjusted to contain the same amount of gold as in 10 mg/kg dose of Auranofin), Indomethacin (5 mg/kg), or 25% DMSO (v/v in water) 30 min prior to the injection of 1% λ-carrageenan solution (50 µL) into the plantar side of right hind paws of the rats. The paw volume was measured immediately after the carrageenan injection (this value was set-up as baseline value for the hind paw volume) and during the next 6 h after the administration of the edematogenic agent using a plethysmometer (model 7159, Ugo Basile, Varese, Italy). The degree of swelling was evaluated as a percentage of the change of the volume of the right hind paw after the carrageenan treatment from the baseline volume. A non-steroidal anti-inflammatory drug Indomethacin was used as a positive control and the obtained data were also compared with the previously reported profile of antiedematous activity for Auranofin [38]. After 6 h, the animals were sacrificed and the edematous feet were dissected, the tissue from the plantar parts was extracted, fixed and stained by a standard hematoxylin/eosin (HE) staining for cytological evaluation of polymorphonuclear cells infiltration.
as §4

| Structure (SMILES) | effect on LPS-induced TNF-α secretion [1] | IC50 [3] | IC50 (HOS osteosarcoma cells) | IC50 [4] | IC50 [5] | IC50 [6] | IC50 [7] | IC50 [8] | IC50 [9] | IC50 [10] | IC50 [11] | further results |
| --- | --- | --- | --- | --- | --- | --- | --- | --- | --- | --- | --- | --- |
| c1ccc(CCOc2ncnc3cc[nH]c23)cc1 [HL5, 6-phenethyloxy-9-deazapurine] | stimulate the production |  |  |  |  |  |  |  |  |  |  |  |
| c1ccc(P(c2ccccc2)c2ccccc2)cc1 [PPh3, triphenylphosphine] | none of the reference compounds, such as AuCl, HLn, [AuCl(PPh3)] and PPh3, exhibited any expected effect |  |  |  |  |  |  |  |  |  |  | effect on LPS-induced IL-1β secretion [2]: decreased the production of IL-1β by a manner comparable to free ligands; level of IL-1β diminished by [2]: ~32% |
| [Au][n]1ccc2ncnc(OCC3CCCO3)c21.c1ccc(P(c2ccccc2)c2ccccc2)cc1 [complex 3] |  | 1 ± 0.1 µM | 4 ± 0.6 µM | 5.3 ± 0.4 µM | 24.1 ± 2.4 µM | 4.6 ± 0.3 µM | 20.7 ± 0.2 µM | 2.2 ± 0.2 µM | 3.4 ± 0.2 µM | 21 ± 0.7 µM | 21.4 ± 0.2 µM |  |
| [Au][n]1ccc2ncnc(OCc3ccccc3)c21.c1ccc(P(c2ccccc2)c2ccccc2)cc1 [complex 4] |  | 1.7 ± 0.1 µM | 1.8 ± 0.3 µM | 5.1 ± 0.3 µM | 23.7 ± 2.1 µM | 4.6 ± 0.2 µM | 14.3 ± 0.2 µM | 4 ± 0.9 µM | 3.5 ± 0.2 µM | 3.5 ± 0.2 µM | > 20 µM | overall antiedematous / anti-inflammatory activity [12]: significant anti-inflammatory effects; antiedematous activity profile up to 180 min after carrageenan ([12]; 30 min before carrageenan): very similar pharmacological profiles of complexes 2 and 4 with the reference drug Indomethacin |
| CC(C)Oc1ncnc2cc[nH]c12 [HL2, 6-isopropyloxy-9-deazapurine] | stimulate the production |  |  |  |  |  |  |  |  |  |  |  |
| [Cl][Au].c1ccc(P(c2ccccc2)c2ccccc2)cc1 [[AuCl(PPh3)], reference compound] | none of the reference compounds, such as AuCl, HLn, [AuCl(PPh3)] and PPh3, exhibited any expected effect |  |  |  |  |  |  |  |  |  |  |  |
| c1ccc(COc2ncnc3cc[nH]c23)cc1 [HL4, 6-benzyloxy-9-deazapurine] | stimulate the production |  |  |  |  |  |  |  |  |  |  |  |
| N.N.[Cl][Pt][Cl] [cisplatin, reference compound] |  |  | 20.5 ± 0.1 µM | 27 ± 1.5 µM | > 50 µM | 11.5 ± 0.5 µM | > 50 µM | 17.9 ± 1.2 µM | 5.3 ± 0.2 µM | 26.9 ± 1.2 µM | > 50 µM | resistance factor (RF), IC50(A2780R)/IC50(A2780) ([4]; ratio resistant/sensitive cells): 2.4 |
| CCOc1ncnc2cc[n]([Au])c12.c1ccc(P(c2ccccc2)c2ccccc2)cc1 [complex 1] |  | 0.8 ± 0.1 µM | 3.3 ± 0.1 µM | 5.2 ± 0.3 µM | 24 ± 1.9 µM | 4.8 ± 0.1 µM | 22 ± 0.6 µM | 3.1 ± 0.2 µM | 3.5 ± 0.2 µM | 3.5 ± 0.1 µM | 20.7 ± 0.1 µM | level of IL-1β diminished by [2]: 32% |
